Experimental findings from ChEMBL document CHEMBL1201862, “PubChem BioAssay data set” (2004) are described below.

For experiment [1], the target named is T1, SUMO-activating enzyme (Homo sapiens, UniProt Q9UBT2). The experiment in a line: SUMOylation inhibitor hit validation, confirmation, SUMOylation inhibitor project, biochemical, AlphaScreen (AID 2018). It is filed as functional.
For experiment [2], the target named is E3 ubiquitin-protein ligase XIAP (Homo sapiens, UniProt P98170). Put plainly: Counter Screen using XIAP-Bir3 for Chemical Antagonists of Bir1/2 domains of IAP-family anti-apoptotic proteins. [Related pubchem assays (depositor defined):AID1018, AID1449, AID1514, AID1638, AID1749, AID1750, AID488957, AID488963].
For experiment [3], the target named is T1, SUMO-activating enzyme. Put plainly: inhibitors of in vitro SUMOylation cascade, primary screen, biochemical, HTRF, uHTS (AID 2006). It counts as protein-complex assay.
A further experiment deals with T2, Bcl-2-related protein A1 (Mus musculus, UniProt Q07440).
T2 sequence (Q07440 whole entry): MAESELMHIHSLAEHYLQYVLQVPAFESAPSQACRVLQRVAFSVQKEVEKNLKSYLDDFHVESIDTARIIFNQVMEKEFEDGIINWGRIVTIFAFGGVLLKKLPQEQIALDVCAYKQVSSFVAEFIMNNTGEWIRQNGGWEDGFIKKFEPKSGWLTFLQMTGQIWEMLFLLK
It is filed as functional.

The target of experiment [4] is T3, Ubiquitin-conjugating enzyme E2 N (Homo sapiens, UniProt P61088).
T3 sequence (P61088 whole entry): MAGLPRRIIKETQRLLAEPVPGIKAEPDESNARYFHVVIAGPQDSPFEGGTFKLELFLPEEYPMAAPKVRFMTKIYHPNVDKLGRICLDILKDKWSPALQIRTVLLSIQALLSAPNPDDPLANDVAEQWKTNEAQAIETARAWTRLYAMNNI
It counts as functional.

Experiment [5] addresses T3, Ubiquitin-conjugating enzyme E2 N. It is filed as functional. This is another data set of the same source.
For experiment [6], the target named is T4, Apoptotic protease-activating factor 1 (Homo sapiens, UniProt O14727).
T4 sequence (O14727 whole entry): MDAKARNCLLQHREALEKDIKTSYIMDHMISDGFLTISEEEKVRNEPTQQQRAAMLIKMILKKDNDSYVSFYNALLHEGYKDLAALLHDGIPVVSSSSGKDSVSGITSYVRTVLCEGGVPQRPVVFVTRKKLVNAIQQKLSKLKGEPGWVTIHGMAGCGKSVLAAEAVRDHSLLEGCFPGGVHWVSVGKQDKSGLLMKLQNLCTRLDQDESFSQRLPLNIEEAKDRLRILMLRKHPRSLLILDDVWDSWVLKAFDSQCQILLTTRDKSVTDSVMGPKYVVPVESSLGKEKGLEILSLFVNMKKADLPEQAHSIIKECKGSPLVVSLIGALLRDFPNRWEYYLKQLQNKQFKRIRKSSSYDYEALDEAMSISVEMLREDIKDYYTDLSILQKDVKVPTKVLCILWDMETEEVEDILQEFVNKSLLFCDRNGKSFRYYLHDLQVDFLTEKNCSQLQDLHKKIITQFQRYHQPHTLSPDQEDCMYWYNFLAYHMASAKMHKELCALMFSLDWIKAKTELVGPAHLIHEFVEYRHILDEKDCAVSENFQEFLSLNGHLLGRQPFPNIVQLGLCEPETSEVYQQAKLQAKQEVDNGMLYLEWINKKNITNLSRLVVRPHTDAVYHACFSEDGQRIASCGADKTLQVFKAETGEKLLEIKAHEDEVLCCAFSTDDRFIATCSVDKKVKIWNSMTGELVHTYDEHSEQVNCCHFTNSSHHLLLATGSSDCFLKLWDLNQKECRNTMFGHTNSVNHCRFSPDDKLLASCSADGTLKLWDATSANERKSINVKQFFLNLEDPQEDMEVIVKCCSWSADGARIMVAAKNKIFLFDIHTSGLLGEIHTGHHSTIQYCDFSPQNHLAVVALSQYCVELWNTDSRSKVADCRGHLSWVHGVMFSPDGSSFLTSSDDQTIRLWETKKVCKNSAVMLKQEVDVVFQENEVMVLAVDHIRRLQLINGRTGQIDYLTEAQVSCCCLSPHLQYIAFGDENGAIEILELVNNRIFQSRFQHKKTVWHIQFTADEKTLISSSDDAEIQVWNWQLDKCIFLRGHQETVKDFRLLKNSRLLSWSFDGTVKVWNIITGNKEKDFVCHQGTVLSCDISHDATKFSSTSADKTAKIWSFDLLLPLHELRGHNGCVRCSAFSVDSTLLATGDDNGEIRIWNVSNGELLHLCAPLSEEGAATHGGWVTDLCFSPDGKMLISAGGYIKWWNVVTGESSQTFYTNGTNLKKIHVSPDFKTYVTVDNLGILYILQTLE
It is filed as functional.

For experiment [7], the target named is T4, Apoptotic protease-activating factor 1. Put plainly: SAR analysis of small molecule inhibitors of Apaf-1 in a Fluorescent assay. The following applies: read-out: IC50_Mean. It is filed as functional.
Experiment [8] has as its target 26S proteasome non-ATPase regulatory subunit 14 (Homo sapiens, UniProt O00487). The experiment in a line: inhibition of proteasome subunit RPN11 – biochemical, fluorescence polarization, uHTS hits, confirmation (AID 602368). It counts as functional.
Experiment [9] has as its target 72 kDa type IV collagenase (Homo sapiens, UniProt P08253). The experiment in a line: Dose Response validation of uHTS RPN11 inhibitor hits using a MMP-2 Fluorescence assay. It is filed as functional.
For a further experiment, the target named is Prothrombin (Bos taurus, UniProt P00735). Put plainly: thrombin inhibition, dose response, biochemical, fluorescence polarization, uHTS hits (AID 602369). It counts as functional.
The nature of experiment [10]: HeLa cell cytotoxicity, dose response, cytotoxicity control for MgcRacGAP inhibitor project (AID 624300). It is filed as functional.
The target of experiment [11] is T5, Rac GTPase-activating protein 1 (Homo sapiens, UniProt Q9H0H5).
T5 sequence (Q9H0H5 whole entry): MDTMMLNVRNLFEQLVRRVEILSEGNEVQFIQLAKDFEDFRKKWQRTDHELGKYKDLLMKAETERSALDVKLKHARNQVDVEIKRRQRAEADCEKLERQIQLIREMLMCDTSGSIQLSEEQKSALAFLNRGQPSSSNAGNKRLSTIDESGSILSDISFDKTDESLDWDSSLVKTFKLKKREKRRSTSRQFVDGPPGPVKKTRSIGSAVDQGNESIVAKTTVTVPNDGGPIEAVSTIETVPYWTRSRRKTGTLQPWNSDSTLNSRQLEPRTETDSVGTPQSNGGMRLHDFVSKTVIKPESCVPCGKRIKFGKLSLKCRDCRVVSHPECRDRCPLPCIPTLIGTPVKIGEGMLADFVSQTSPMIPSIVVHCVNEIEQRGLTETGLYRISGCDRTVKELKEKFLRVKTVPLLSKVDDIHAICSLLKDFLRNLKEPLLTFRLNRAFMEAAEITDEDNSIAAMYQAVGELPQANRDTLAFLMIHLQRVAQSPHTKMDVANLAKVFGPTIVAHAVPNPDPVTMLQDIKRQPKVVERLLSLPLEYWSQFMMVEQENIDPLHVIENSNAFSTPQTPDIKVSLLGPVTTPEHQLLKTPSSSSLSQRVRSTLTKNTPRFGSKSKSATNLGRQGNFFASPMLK
Put plainly: MgcRacGAP GTPase-activating activity inhibitors, confirmation, biochemical, ADP Hunter fluorescence, primary and confirmatory (AID 624330). It counts as functional.

The target of experiment [12] is T6, DNA repair protein RAD52 homolog (Homo sapiens, UniProt P43351).
T6 sequence (P43351 whole entry): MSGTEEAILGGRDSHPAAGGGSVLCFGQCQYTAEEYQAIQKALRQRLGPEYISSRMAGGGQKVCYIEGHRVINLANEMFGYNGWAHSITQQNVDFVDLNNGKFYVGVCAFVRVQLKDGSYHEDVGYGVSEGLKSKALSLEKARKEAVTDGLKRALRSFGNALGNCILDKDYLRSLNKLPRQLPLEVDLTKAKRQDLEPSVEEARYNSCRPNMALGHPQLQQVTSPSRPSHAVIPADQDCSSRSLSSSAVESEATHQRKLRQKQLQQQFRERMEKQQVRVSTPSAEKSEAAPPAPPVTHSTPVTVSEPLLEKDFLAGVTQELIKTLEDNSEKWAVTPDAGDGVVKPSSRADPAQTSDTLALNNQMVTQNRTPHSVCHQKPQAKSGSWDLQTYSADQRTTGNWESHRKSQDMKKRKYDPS
It is filed as functional, biochemical.

Experiment [13] has as its target Glycogen synthase kinase-3 beta (Homo sapiens, UniProt P49841). Put plainly: GSK3beta kinase inhibitors, dose response, biochemical, microfluidics, dry powder samples, set 2 (AID 623989). It counts as functional.
For experiment [14], the target named is Glycogen synthase kinase-3 alpha (Homo sapiens, UniProt P49840). Put plainly: human GSK3 alpha kinase inhibition, dose response, selectivity assay for GSK3beta inhibitor project, biochemical, microfluidics, dry powder samples, set 2 (AID 623978). It is filed as functional.
The target of experiment [15] is Cell division cycle 7-related protein kinase (Homo sapiens, UniProt O00311). It is filed as functional.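 Note: value obtained from a kinome-wide kinase panel.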
Experiment [16] concerns the target Cyclin-dependent kinase 19 (Homo sapiens, UniProt Q9BWU1). Put plainly: Navigating the Kinome. Panel member name: CDC2L6. It is filed as functional.

Calls of active or inactive are those of the source.

T1 sequence (Q9UBE0 whole entry): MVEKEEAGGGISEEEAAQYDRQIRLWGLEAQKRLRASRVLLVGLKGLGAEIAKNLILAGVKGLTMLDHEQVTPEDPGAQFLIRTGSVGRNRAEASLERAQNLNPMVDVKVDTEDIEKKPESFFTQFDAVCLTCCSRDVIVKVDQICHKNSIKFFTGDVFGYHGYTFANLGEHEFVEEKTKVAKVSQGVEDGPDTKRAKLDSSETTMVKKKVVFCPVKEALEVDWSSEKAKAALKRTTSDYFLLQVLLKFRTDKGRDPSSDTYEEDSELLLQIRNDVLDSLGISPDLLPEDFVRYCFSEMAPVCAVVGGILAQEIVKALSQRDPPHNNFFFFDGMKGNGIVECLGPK
T1 sequence (Q9UBT2 whole entry): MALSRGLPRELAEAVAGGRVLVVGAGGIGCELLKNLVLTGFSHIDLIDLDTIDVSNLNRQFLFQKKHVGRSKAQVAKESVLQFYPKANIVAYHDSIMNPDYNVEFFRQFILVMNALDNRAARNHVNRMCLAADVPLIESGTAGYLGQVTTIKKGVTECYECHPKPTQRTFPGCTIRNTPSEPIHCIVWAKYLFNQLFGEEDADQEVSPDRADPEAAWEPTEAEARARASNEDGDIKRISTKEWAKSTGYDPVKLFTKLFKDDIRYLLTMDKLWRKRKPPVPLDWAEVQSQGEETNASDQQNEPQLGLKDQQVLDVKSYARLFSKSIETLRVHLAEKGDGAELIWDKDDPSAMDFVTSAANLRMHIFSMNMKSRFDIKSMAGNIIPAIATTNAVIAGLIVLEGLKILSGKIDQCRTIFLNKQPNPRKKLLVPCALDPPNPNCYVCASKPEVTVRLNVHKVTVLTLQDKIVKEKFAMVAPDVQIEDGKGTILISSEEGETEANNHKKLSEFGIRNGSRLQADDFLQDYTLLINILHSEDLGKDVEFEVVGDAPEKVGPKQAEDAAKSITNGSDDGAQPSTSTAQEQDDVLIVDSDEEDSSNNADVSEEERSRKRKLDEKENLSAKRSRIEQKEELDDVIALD
Sequence of Cell division cycle 7-related protein kinase (O00311 whole entry): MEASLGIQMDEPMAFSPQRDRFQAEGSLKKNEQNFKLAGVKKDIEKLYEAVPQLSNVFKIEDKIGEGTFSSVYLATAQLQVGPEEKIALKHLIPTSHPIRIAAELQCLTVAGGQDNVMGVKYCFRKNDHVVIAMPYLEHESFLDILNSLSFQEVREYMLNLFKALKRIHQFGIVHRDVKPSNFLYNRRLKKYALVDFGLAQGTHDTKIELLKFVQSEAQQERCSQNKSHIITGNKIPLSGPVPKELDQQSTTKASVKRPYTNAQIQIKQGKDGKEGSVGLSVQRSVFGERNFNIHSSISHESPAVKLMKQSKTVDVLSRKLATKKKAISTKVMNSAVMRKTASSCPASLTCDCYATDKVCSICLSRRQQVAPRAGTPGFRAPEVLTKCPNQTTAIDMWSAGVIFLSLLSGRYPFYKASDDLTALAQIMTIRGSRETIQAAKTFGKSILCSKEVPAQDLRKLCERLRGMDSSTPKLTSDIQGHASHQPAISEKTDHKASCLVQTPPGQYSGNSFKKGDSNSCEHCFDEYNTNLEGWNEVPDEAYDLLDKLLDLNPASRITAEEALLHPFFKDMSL
Sequence of 26S proteasome non-ATPase regulatory subunit 14 (O00487 whole entry): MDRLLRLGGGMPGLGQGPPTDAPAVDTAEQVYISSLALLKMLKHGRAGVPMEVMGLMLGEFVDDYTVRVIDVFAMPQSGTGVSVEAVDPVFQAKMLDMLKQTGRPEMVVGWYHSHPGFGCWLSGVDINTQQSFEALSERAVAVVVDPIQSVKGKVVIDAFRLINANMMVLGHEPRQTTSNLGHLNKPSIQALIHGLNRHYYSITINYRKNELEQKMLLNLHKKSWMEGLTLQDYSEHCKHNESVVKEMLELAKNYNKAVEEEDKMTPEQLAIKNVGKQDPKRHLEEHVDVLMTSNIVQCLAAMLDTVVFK
Sequence of 72 kDa type IV collagenase (P08253 whole entry): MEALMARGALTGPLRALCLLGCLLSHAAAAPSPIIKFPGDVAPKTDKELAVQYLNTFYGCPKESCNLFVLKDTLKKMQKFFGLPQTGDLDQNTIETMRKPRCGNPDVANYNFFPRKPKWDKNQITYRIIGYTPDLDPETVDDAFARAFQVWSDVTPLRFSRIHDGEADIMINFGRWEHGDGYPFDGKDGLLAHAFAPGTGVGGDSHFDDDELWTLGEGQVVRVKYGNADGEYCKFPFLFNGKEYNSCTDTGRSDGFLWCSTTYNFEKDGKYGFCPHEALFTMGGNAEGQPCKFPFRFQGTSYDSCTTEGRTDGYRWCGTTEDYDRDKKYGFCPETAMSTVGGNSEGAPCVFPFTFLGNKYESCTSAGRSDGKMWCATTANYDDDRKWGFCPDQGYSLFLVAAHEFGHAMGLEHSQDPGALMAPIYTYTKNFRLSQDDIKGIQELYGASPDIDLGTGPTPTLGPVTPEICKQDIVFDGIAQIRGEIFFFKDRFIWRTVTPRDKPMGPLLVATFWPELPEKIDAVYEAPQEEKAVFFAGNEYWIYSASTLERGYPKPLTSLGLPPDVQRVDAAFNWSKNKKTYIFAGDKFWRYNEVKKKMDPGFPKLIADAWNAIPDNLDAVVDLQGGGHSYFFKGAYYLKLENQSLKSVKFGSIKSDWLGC
Sequence of Glycogen synthase kinase-3 alpha (P49840 whole entry): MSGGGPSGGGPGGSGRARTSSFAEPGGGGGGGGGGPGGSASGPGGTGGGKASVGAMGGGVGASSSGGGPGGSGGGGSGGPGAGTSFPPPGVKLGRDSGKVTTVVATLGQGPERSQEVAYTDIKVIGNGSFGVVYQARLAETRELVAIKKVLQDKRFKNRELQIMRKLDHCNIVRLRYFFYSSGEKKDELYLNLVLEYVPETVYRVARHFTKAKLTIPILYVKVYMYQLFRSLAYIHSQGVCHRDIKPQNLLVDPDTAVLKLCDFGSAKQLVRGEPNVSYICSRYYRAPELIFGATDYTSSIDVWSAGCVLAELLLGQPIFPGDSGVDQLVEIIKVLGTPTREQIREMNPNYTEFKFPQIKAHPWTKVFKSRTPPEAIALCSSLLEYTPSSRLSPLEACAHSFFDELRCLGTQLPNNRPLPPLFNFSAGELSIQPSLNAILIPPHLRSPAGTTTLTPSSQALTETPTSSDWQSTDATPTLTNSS
Sequence of Glycogen synthase kinase-3 beta (P49841 whole entry): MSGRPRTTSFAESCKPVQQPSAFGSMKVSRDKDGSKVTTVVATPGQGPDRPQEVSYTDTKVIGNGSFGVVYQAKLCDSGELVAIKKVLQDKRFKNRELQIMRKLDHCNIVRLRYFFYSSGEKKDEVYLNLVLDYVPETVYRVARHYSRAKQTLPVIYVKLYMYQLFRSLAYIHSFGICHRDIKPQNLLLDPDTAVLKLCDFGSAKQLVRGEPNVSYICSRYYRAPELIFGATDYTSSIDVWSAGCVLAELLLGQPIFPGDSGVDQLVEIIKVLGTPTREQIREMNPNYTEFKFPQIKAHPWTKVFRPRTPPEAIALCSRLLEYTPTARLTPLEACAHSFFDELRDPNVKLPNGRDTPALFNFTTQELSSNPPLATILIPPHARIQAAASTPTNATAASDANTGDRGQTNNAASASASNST
Sequence of E3 ubiquitin-protein ligase XIAP (P98170 whole entry): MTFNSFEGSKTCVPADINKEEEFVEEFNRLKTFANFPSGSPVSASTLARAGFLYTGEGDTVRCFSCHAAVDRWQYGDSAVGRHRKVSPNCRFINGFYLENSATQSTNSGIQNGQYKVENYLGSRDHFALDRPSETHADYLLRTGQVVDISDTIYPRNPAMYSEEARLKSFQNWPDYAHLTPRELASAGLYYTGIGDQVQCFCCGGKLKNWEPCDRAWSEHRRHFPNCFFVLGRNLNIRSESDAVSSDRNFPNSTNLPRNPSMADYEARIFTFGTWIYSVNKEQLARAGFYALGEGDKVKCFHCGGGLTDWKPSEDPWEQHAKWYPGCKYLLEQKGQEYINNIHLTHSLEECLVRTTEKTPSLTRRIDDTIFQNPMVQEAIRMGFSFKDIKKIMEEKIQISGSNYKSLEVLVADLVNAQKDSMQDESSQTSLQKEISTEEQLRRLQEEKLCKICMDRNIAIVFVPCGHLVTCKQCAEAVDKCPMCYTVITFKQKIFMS
Sequence of Cyclin-dependent kinase 19 (Q9BWU1 whole entry): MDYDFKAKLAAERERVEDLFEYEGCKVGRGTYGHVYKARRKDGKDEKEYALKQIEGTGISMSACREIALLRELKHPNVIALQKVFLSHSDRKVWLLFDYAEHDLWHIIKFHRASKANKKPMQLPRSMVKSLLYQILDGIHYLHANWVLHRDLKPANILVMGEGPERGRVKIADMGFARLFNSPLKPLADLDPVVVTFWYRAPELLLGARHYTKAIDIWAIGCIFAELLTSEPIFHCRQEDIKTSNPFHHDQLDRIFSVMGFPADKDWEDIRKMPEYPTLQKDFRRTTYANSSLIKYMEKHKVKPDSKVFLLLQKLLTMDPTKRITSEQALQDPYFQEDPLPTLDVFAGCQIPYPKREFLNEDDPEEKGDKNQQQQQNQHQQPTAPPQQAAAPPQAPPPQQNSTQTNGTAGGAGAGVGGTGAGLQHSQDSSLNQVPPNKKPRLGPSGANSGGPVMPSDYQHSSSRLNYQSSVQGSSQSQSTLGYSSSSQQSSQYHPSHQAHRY

Regarding `CCN(CC)CCOC(=O)c1ccc(N/C=C(/C#N)c2nc(-c3ccc(OC)c(OC)c3)cs2)cc1`, the IC50 on SUMO-activating enzyme [1] is 7.12 µM (active); in experiment [2], > 20 µM (inactive); at SUMO-activating enzyme [3], 11.7 µM (active); at Bcl-2-related protein A1, 3.44 µM (active); in [4], 3.76 µM (active); in [5], 3.02 µM (active). The IC50 is 4.09 µM (active) in [6]; 3.93 µM (active) in experiment [7]; 23.2 µM (active) in experiment [8]; > 100 µM (inactive) in experiment [9]; 28.7 µM (active) on Prothrombin; 32.4 µM (active) in [11]. Also, the CC50 in experiment [10] was 92.3 µM (active). In experiment [12], the AC50 was 10.9 µM (active).
On to `COC(=O)c1ccc(CSc2ccc3nnc(-c4ccc(F)cc4)n3n2)o1`, for which the AC50 in experiment [13] was 0.509 µM (active); in [14], 1.87 µM (active).
`CN(C)CCNC(=O)c1ccc(-c2ccnc(Nc3cccc(F)c3)n2)cc1`: the Ki was 0.251 µM (active) in experiment [15] and 31.6 µM (active) in experiment [16].
